# In patent US20230348362A1, “LIPID COMPOUNDS AND LIPID NANOPARTICLE COMPOSITIONS” (Suzhou Abogen Biosciences Co., Ltd., priority 2021, published 2023):
# Columns and labels:
# Type in all cases: physicochemical
# [1] = Apparent pKa of LNP formulations, TNS fluorescence assay; conditions: LNP cationic lipid/DSPC/cholesterol/DMG-PEG 50/10/38.5/1.5 mol %
# Procedure, shortened: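 LNPs (cationic lipid/DSPC/cholesterol/DMG-PEG 50/10/38.5/1.5 mol %) diluted to 0.1 mg/mL total lipid in citrate/phosphate/borate/NaCl buffers spanning pH 3–9 with TNS. Fluorescence (ex 325, em 435 nm) read at room temperature; pKa taken as the pH at half-maximal intensity from sigmoidal fit.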
# [2] = Lipid nanoparticle size and polydispersity by dynamic light scattering; conditions: LNP of lipid/DSPC/cholesterol/PEG-lipid 50:10:38.5:1.5 encapsulating hEPO mRNA
# Procedure, shortened: (§1)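 LNPs made from ionizable lipid/DSPC/cholesterol/PEG-lipid (50:10:38.5:1.5) and mRNA in citrate pH 4 by microfluidic mixing, lipid:mRNA about 10:1–30:1 w/w, then dialysed into DPBS and filtered. Size and PDI measured by DLS in backscatter mode; encapsulation efficiency measured by RiboGreen assay.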
# [3] = Encapsulation efficiency of lipid nanoparticles, Quant-it Ribogreen RNA assay; conditions: LNP of lipid/DSPC/cholesterol/PEG-lipid 50:10:38.5:1.5 encapsulating hEPO mRNA
# Procedure, shortened: as §1
Apparent Pka [1],polydispersity [2],size (nm) [2] [nm],Encapsulation Efficiency [3] [%],Compound
6.513,0.092,75.12,92.85,CCCCCCCCC(=O)OCC(CCCCN(CCO)CCN(CCCCC(COC(=O)CCCCCCCC)COC(=O)CCCCCCCC)C1CCC1)COC(=O)CCCCCCCC [Compound 166]
6.537,0.107,78.08,91.48,CCCCCCCCCCC(=O)OCC(CCCCN(CCO)CCN(CCCCC(COC(=O)CCCCCCCCCC)COC(=O)CCCCCCCCCC)C1CCC1)COC(=O)CCCCCCCCCC [Compound 168]
6.447,0.153,73.05,89.88,CCCCCCCCCCCC(=O)OCC(CCCCN(CCO)CCN(CCCCC(COC(=O)CCCCCCCCCCC)COC(=O)CCCCCCCCCCC)C1CCC1)COC(=O)CCCCCCCCCCC [Compound 169]
6.269,0.09,74.62,96.0,CCCCCCCCC(CCCCCCCC)COC(=O)CCCCCN1CCC(N(CCO)CCCCCC(=O)OCC(CCCCCCCC)CCCCCCCC)CC1 [Compound 170]
6.668,0.059,95.00,93.69,CCCCCCCCCOC(=O)CCCCCCCN1CCC(N(CCO)CCCCCCCC(=O)OC(CCCCCCCC)CCCCCCCC)CC1 [Compound 177]
6.337,0.056,96.32,89.15,CCCCCCCC(=O)OCC(COCCN(CCO)CCN(CCOCC(COC(=O)CCCCCCC)COC(=O)CCCCCCC)C1CCC1)COC(=O)CCCCCCC [Compound 178]
6.322,0.041,103.40,89.97,CCCCCCCC(=O)OCC(COCCN(CCO)CCN(CCOCC(COC(=O)CCCCCCC)COC(=O)CCCCCCC)C1CCCCC1)COC(=O)CCCCCCC [Compound 179]
6.995,0.154,119.3,94.10,CCCCCCCC(=O)OCC(CCCCN(CCO)CCCCN(CCCCC(COC(=O)CCCCCCC)COC(=O)CCCCCCC)C1CCCC1)COC(=O)CCCCCCC [Compound 181]
6.862,0.09,99.97,91.00,CCCCCCCCCCCOC(=O)CCCCCN(CCN(CCO)CCCCC(COC(=O)CCCCCCC)COC(=O)CCCCCCC)C1CCC1 [Compound 182]
6.858,0.032,103.2,92.26,CCCCCCCCCCCOC(=O)CCCCCN(CCN(CCO)CCCCC(COC(=O)CCCCCCC)COC(=O)CCCCCCC)C1CCCC1 [Compound 183]
7.098,0.172,129.75,90.65,CCCCCCCC(=O)OCC(CCCCN(CCC)CCCCN(CCO)CCCCC(COC(=O)CCCCCCC)COC(=O)CCCCCCC)COC(=O)CCCCCCC [Compound 184]
6.593,0.111,75.27,90.39,CCCCCCCC(=O)OCC(CCCCN(CCO)CCCCN(CCCCC(COC(=O)CCCCCCC)COC(=O)CCCCCCC)C1CCCCC1)COC(=O)CCCCCCC [Compound 185]
7.617,0.139,72.88,91.69,CCCCCCCCC(CCCCCCCC)CNC(=O)CCCCCN(CCCCN(CCO)CCCCC(COC(=O)CCCCCCC)COC(=O)CCCCCCC)C1CCC1 [Compound 186]
6.226,0.083,88.82,94.26,CCCCCCCCC(CCCCCCCC)COC(=O)CCCCCN(CCCCCN(CCO)CCCCC(COC(=O)CCCCCCC)COC(=O)CCCCCCC)C1CCC1 [Compound 187]
6.738,0.085,111.8,86.80,CCCCCCCCCCCNC(=O)CCCCCN(CCN(CCO)CCCCC(COC(=O)CCCCCCC)COC(=O)CCCCCCC)C1CCC1 [Compound 188]
6.542,0.114,87.22,93.88,CCCCCCCC(=O)OCC(CCCCN(CCO)CCCCN(CCCCC(COC(=O)CCCCCCC)COC(=O)CCCCCCC)C(C)C)COC(=O)CCCCCCC [Compound 189]
6.699,0.13,78.4,88.81,CCCCCCCCC(CCCCCC)COC(=O)CCCCCN(CCCCN(CCO)CCCCC(COC(=O)CCCCCCC)COC(=O)CCCCCCC)C1CC1 (stereo not drawn) [Compound 190]

Apparent Pka [1],polydispersity [2],size (nm) [2] [nm],Encapsulation Efficiency [3] [%],Compound
6.552,0.117,86.61,93.35,CCCCCCCCC(CCCCCC)COC(=O)CCCCCN(CCCCN(CCO)CCCCC(COC(=O)CCCCCCC)COC(=O)CCCCCCC)C1CCCC1 (stereo not drawn) [Compound 191]
6.707,0.109,82.66,90.40,CCCCCCCCC(CCCCCC)COC(=O)CCCCCN(CCCCN(CCO)CCCCC(COC(=O)CCCCCCC)COC(=O)CCCCCCC)C1CCCCC1 (stereo not drawn) [Compound 192]
6.666,0.228,80.39,84.30,CCCCCCCCC(CCCCCC)COC(=O)CCCCCN(CCCCN(CCO)CCCCC(COC(=O)CCCCCCC)COC(=O)CCCCCCC)C1CCCCCC1 (stereo not drawn) [Compound 193]
6.705,0.15,102.1,84.59,CCCCCCCCC(CCCCCC)COC(=O)CCCCCN(CCCCN(CCO)CCCCC(COC(=O)CCCCCCC)COC(=O)CCCCCCC)C1CCCCCCC1 (stereo not drawn) [Compound 194]
6.925,0.153,104.2,83.82,CCCCCCCCC(CCCCCC)CNC(=O)CCCCCN(CCCCN(CCO)CCCCC(COC(=O)CCCCCCC)COC(=O)CCCCCCC)C1CC1 (stereo not drawn) [Compound 195]
6.984,0.069,96.11,88.41,CCCCCCCCC(CCCCCC)CNC(=O)CCCCCN(CCCCN(CCO)CCCCC(COC(=O)CCCCCCC)COC(=O)CCCCCCC)C1CCCCCC1 (stereo not drawn) [Compound 198]
6.858,0.162,80.14,94.30,CCCCCCCCC(CCCCCC)CNC(=O)CCCCCN(CCCCN(CCO)CCCCC(COC(=O)CCCCCCC)COC(=O)CCCCCCC)C1CCCCCCC1 (stereo not drawn) [Compound 199]
6.593,0.054,84.18,92.81,CCCCCCCCCCCOC(=O)CCCCCN(CCN(CCO)CCCCCC(OCCCCCCCC)OCCCCCCCC)C1CCC1 [Compound 200]
6.226,0.028,91.64,94.15,CCCCCCCCOC(CCCCCN(CCO)CCN(CCCCCC(=O)OCC(CCCCCC)CCCCCCCC)C1CCC1)OCCCCCCCC (stereo not drawn) [Compound 201]
6.738,0.042,84.35,88.47,CCCCCCCCOC(CCCCCN(CCO)CCN(CCCCCC(=O)NCC(CCCCCC)CCCCCCCC)C1CCCCCC1)OCCCCCCCC (stereo not drawn) [Compound 202]
6.874,0.16,131.9,78.17,CCCCCCCC(=O)OCC(CCCCN(CC=C(C)C)CCCCN(CCO)CCCCC(COC(=O)CCCCCCC)COC(=O)CCCCCCC)COC(=O)CCCCCCC [Compound 203]
6.917,0.023,104.3,81.79,CCCCCCCCC(CCCCCC)CNC(=O)CCCCCN(CCOCCO)CCN(CCCCC(COC(=O)CCCCCCC)COC(=O)CCCCCCC)C1CCCC1 (stereo not drawn) [Compound 205]
6.81,0.07,112.7,80.88,CCCCCCCCC(CCCCCC)CNC(=O)CCCCCN(CCOCCO)CCN(CCCCC(COC(=O)CCCCCCC)COC(=O)CCCCCCC)C1CCCCC1 (stereo not drawn) [Compound 206]
6.657,0.071,87.97,87.94,CCCCCCCCC(CCCCCC)CNC(=O)CCCCCN(CCOCCO)CCN(CCCCC(COC(=O)CCCCCCC)COC(=O)CCCCCCC)C1CCCCCC1 (stereo not drawn) [Compound 207]
6.691,0.053,85.95,86.63,CCCCCCCCC(CCCCCC)CNC(=O)CCCCCN(CCOCCO)CCN(CCCCC(COC(=O)CCCCCCC)COC(=O)CCCCCCC)C1CCCCCCC1 (stereo not drawn) [Compound 208]
6.608,0.039,95.78,87.79,CCCCCCCCC(CCCCCC)CNC(=O)CCCCCN(CCCCCO)CCN(CCCCC(COC(=O)CCCCCCC)COC(=O)CCCCCCC)C1CCCCC1 (stereo not drawn) [Compound 209]
